The values that follow come from article PMC9321231.

In one data set the test system is A549 cells. Briefly: Apoptosis/necrosis assay, Annexin V-FITC/PI flow cytometry. Conditions: for percentage of A549 cells undergoing apoptosis: 48 h, control 6.05 ± 0.17%; for induction of necrosis: A549, 48 h. In kind it is cell-based, human. The protocol:
The rate of cell apoptosis and necrosis was detected using Annexin V-FITC/PI double staining. […] Compound 3e turned out to be a stronger inducer of apoptosis than 3c. […] In turn, compound 3c induced apoptosis only at the concentrations of 10 and 20 µM, and the percentage of cells undergoing apoptosis increased from 6.05 ± 0.17% in the control to 10.14 ± 0.76% and 14.67 ± 0.68%, respectively (Figure 4B). Moreover, compound 3e at a concentration of 5 µM induced apoptosis to a similar level as cisplatin (CDDP) used at a concentration of 4 µM. To identify the mechanism of the 3c- and 3e-induced apoptosis in the A549 cells, the activation of effector caspase-3 was evaluated by flow cytometry. […] To further explore the antiproliferative activity of compounds 3c and 3e, the influence of both compounds on the distribution of cell cycle phases in the A549 cells was analyzed. […] The G2 checkpoint prevents cells from entering mitosis when DNA is damaged, providing an opportunity for repair and stopping the proliferation of damaged cells. […] Apoptosis is a crucial process involved in the regulation of tumor formation and in the treatment response; therefore, cancer therapy has been linked to activation of the apoptosis signal transduction pathway. Caspase-3, an executioner caspase, plays an important role in apoptosis and becomes a primary target for cancer treatment.
The fluorescence-activated cell sorting (FACS) technique was employed to analyze the 3c- and 3e-induced cell death, the activation of executive caspase-3, and the cell cycle in the A549 cells. The quantitative analysis of apoptosis and necrosis was performed using an Annexin V-fluorescein isothiocyanate (FITC)/ propidium iodide (PI) apoptosis kit (BD Biosciences, BD Pharmingen™, San Jose, CA, USA) as previously described. To determine the active form of caspase-3, the A549 cells were plated into 6-well plates at a density of 6 × 10^5 cells/well. The next day, the growth medium was replaced with a fresh one supplemented with compound 3c or 3e (10, 20, and 40 µM) or the DMSO vehicle (0.1%; control cells). After 48-h incubation, the samples were harvested and the level of active caspase-3 was determined using the phycoerythrin (PE) Active Caspase-3 Apoptosis Kit (BD Pharmingen™) according to the manufacturer’s instructions. The stained cells were analyzed using FACS Calibur, and data were analyzed using Cell Quest Pro Version 6.0 (BD Biosciences, San Jose, CA, USA) for the Macintosh operating system. The results were calculated as a percent of cells with active caspase-3 among all the analyzed cells. The cell cycle analysis was performed by determination of the DNA contents on the basis of PI staining as previously described.
Figure 4 Effect of compounds 3c and 3e and cisplatin (CDDP) on apoptosis induction in the A549 cell line. After the 48-h exposure to the indicated concentrations of the compounds, the cells were stained with annexin (An) V-FITC)/propidium iodide (PI) and examined with flow cytometry. (A) The representative graphs obtained by flow cytometric analysis: dot plots indicate the percentage of An−/PI+ necrotic cells (Q1), An+ /PI+ late apoptotic cells (Q2), An−/PI− viable cells (Q3), and An+ /PI− early apoptotic cells (Q4). (B) Statistical analysis of the apoptotic (early + late apoptosis) and necrotic rate populations after the 3c, 3e, and cisplatin (CDDP) treatment. Data are presented as mean ± SD from three independent experiments; *** p < 0.001 in comparison to the control; one-way ANOVA followed by Dunnett’s post hoc test.

Data set [1] deals with T1, human neutrophil elastase (HNE) (Homo sapiens, UniProt P08246).
T1 sequence (P08246 30-267): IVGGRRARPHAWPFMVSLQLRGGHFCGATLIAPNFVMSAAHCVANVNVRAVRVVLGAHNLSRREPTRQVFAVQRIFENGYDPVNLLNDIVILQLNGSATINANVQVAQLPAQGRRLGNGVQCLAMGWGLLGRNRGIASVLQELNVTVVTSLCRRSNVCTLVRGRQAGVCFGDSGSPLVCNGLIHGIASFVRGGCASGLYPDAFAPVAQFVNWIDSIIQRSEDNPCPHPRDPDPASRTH
Briefly: Human neutrophil elastase inhibition assay (spectrofluorimetric, MeOSuc-AAPV-AMC substrate).
Procedure: The inhibition of human neutrophil elastase was carried out by the spectrofluorimetric method using N-methoxysuccinyl-Ala-Ala-Pro-Val-7-amido-4-methylcoumarin (MeOSuc-AAPV-AMC) as substrate.

Data set [2] is described as follows: Spontaneous hydrolysis (chemical stability) in phosphate buffer, spectrophotometric. In kind it is physicochemical. Particulars: 0.05 M phosphate buffer, pH 7.3, 25 °C; for half-life: t1/2 = 0.693/k'. The protocol:
Testing the stability of new drugs is of great importance for obtaining a good therapeutic profile as well as the safety of their future use. Degradation impurities can reduce drug efficacy and generate undesirable side effects.
The kinetics hydrolysis of the compounds was evaluated at 25 °C in 0.05 M phosphate buffer, pH 7.3, by measuring changes in absorbance spectra during incubation using a T60U spectrophotometer (PG Instruments). The absorbance (At) at characteristic absorption maxima for each compound was measured at 10 min intervals until there was no further decrease in absorbance (Aꝏ). Using these measurements, semilogarithmic plots of the dependence of log(At–Aꝏ) on time were prepared, and k’ values were determined from the slope of these plots according to first order reaction kinetics. Half-conversion times were calculated using equation: t1/2 = 0.693/k’.

Data set [3] relates to urinary bladder carcinoma (UMUC-3) cells. Briefly: Antiproliferative assay (MTT or SRB), UMUC-3. Conditions: for IC50: Homo sapiens, UMUC3, UMUC-3, read-out: IC50 ± SD, antiproliferative activity; for Calculated Selectivity Index SI: IC50 Balb/3T3 / IC50 UMUC-3. The data set is classed as cell-based, human. The method, then: (§1) Cell preparation, an in vitro antiproliferative assay, and MTT and SRB cytotoxic tests were performed according to the literature.

The test system of data set [4] is human breast adenocarcinoma (MDA-MB-231) cells. Briefly: Antiproliferative assay (MTT or SRB), MDA-MB-231. In kind it is cell-based. Particulars: for IC50: Homo sapiens, MDA-MB-231, read-out: IC50 ± SD, antiproliferative activity; for Calculated Selectivity Index SI: IC50 Balb/3T3 / IC50 MDA-MB-231. The protocol:
as §1

Data set [5] concerns the target T1, human neutrophil elastase (HNE). The experiment in a line: Kinetic analysis of the inhibition of human neutrophil elastase (Lineweaver-Burk, Dixon, secondary plots). Conditions: for Inhibition Type: Lineweaver-Burk and Dixon analysis; for Kis (enzyme-substrate-inhibitor dissociation constant): secondary plot of intercept versus inhibitor concentration; for Ki: secondary plot of slope versus inhibitor concentration, read-out: Ki (enzyme-inhibitor dissociation constant). The data set is classed as biochemical. The protocol:
Next, kinetic analysis of the mechanism of inhibition of human neutrophil elastase by thiazoles 3a–3j was determined using double-reciprocal plots of Lineweaver-Burk plots and Dixon analysis.
The first model is one in which the inhibitor binds better to the free enzyme (competitive mechanism), while the second model is one in which the inhibitor binds better to the enzyme-substrate complex (non-competitive mechanism). Next the secondary plots of slope versus concentration of test compounds were plotted to determine the enzyme-inhibitor dissociation constants Ki, and similarly as was used to determine enzyme-substrate-inhibitor dissociation constants Kis, the secondary plots of intercept versus concentration of tested compounds were plotted.
Kinetic studies were conducted in the presence of different concentrations of substrate (5, 25, 50 and 100 µM) and test compounds (in the range of 0–500 nM). The reaction conditions were the same as in the HNE inhibition assay and the reaction was monitored for 10 min at 25 °C with the same Ex an Em wavelengths. By Lineweaver–Burk plots, kinetic values such as the Michaelis–Menten constants and maximum velocity were determined. Next, two inhibition constants for inhibitor binding with free enzyme or enzyme–substrate complex (Ki and Kis) were obtained by plotting the secondary plot of the slopes of the determined straight lines or vertical intercept (1/Vmax) versus inhibitor concentration.

Broadly, the IC50 is the concentration needed to halve the response being measured. The half-life is the time needed for the level to fall by half in the phase considered. One may read the Ki as a dissociation constant, usually derived from enzyme kinetics or from competition with a known ligand. Consider `CCC1(CC)C(=O)N(c2ccc(-c3csc(Nc4cc(OC)c(OC)c(OC)c4)n3)cc2)C1=O` [3c, 3,3-Diethyl-1-(4-(2-(3,4,5-trimethoxyphenylamino)thiazol-4-yl)phenyl)azetidine-2,4-dione], for which the “percentage of A549 cells undergoing apoptosis” value (from here on “percentage”) in the data set on A549 cells (10 µM) is 10.14 ± 0.76%. Moreover, the “percentage” value in the data set with A549 cells (20 µM) is on record as 14.67 ± 0.68%. Further, in the data set with A549 cells, the induction of necrosis result is on record as “no induction of necrosis was observed”. The same compound returned an IC50 in data set [1] of 0.0382 ± 0.00491 µM. Further, in data set [2], the “k, rate constant of spontaneous hydrolysis” value is 0.015 min⁻¹ and the half-life came to 46.2 min. In data set [3], the concentration for half-maximal inhibition (IC50) was 6.9 ± 0.21 µM and the “Calculated Selectivity Index SI” value is given as 1.07. In addition, in data set [4], the IC50 was found to be 6.38 ± 0.71 µM and the “Calculated Selectivity Index SI” value is listed as 1.16. Also, in data set [5], the “Inhibition Type” value is listed as “mixed type I inhibition”, the “Kis (enzyme-substrate-inhibitor dissociation constant)” value stood at 99.50 nM and the Ki was determined as 0.0661 µM.
`CCC1(CC)C(=O)N(c2ccc(-c3csc(Nc4ccc(S(N)(=O)=O)cc4)n3)cc2)C1=O` [3e, 4-(4-(4-(3,3-Diethyl-2,4-dioxoazetidin-1-yl)phenyl)thiazol-2-ylamino)benzenesulfo-namide]: the “percentage” value in the data set with A549 cells (5 µM) was determined as 8.79 ± 0.50%; in the data set on A549 cells (10 µM), 14.45 ± 1.02%; in the data set on A549 cells (20 µM), 23.39 ± 0.31%. Moreover, the induction of necrosis result with A549 cells is given as “no induction of necrosis was observed”. Further, the IC50 was determined as 0.035 ± 0.00388 µM in data set [1], 7.49 ± 0.64 µM in data set [3] and 6.42 ± 1.7 µM in data set [4]. The “k, rate constant of spontaneous hydrolysis” value in data set [2] worked out at 0.0175 min⁻¹. For the same compound, in data set [2], the half-life came out at 39.6 min. The “Calculated Selectivity Index SI” value is on record as 0.88 in data set [3] and 1.02 in data set [4]. In data set [5], the “Inhibition Type” value is on record as “mixed type I inhibition”. In data set [5], the “Kis (enzyme-substrate-inhibitor dissociation constant)” value amounted to 240.00 nM. Moreover, in data set [5], the Ki was 0.0358 µM.
